Reference: patent US8716292B2, “Riminophenazines with 2-(heteroaryl)amino substituents and their anti-microbial activity” (priority 2010, dated 2014)
In brackets after ≈: the same amount, converted by molar mass. Read-outs that look alike come from different tables or passages of the source.

What was measured:
[1] = tested on: Mycobacterium tuberculosis H37Rv strains; experiment: In vitro assay for antimicrobial susceptibility (microplate Alamar blue MIC); assay type: cell-based; conditions: Mycobacterium tuberculosis, H37RV, in vitro, Mycobacterium tuberculosis H37Rv strains; read-out: MIC (μg/mL) against H37Rv
[2] = in vivo; cited from earlier work
tuberculosis [3] = conditions: mice; cited from earlier work
tuberculosis [4] = conditions: guinea pig model; cited from earlier work
tuberculosis [5] = conditions: monkey model; cited from earlier work
tuberculosis [6] = conditions: hamsters; cited from earlier work
[7] = tested on: Mycobacterium tuberculosis; conditions: relative to clofazimine; cited from earlier work
H37Rv = experiment: In vivo testing: mice infected intravenously with H37Rv, lung tissue CFU counts; design: species or system Male BALB/c mice; conditions: thirty days postinfection; for Log CFU (TBI treated): 20 mg/kg, gavage 5 times weekly, lung tissue CFU; for log reduction at 20 mg/kg: Mycobacterium tuberculosis, H37RV, iv, 720 h, versus untreated control, lung tissue, read-out: Log CFU Reduction (TBI treated)
Protocol: Male BALB/c mice (18˜20 g) were infected intravenously with 0.2 ml portions containing 1×10^5 CFU of H37Rv. One day after the infection, four mice were sacrificed and the numbers of CFU in the spleens and lungs were determined. Organs were removed and homogenized in Middlebrook 7H9 broth. To enumerate CFU, appropriate dilutions of the homogenates were plated onto Middlebrook 7H10 agar and colonies were counted after 3 to 4 weeks of incubation at 37° C. The remaining mice were allocated either to untreated groups or to various drug treated groups (six mice per group). The dose of every test compound was 20 mg/kg. The positive control groups were treated by isoniazid and clofazimine. The test compounds and clofazimine were administered by gavage 5 times weekly. Untreated mice were administered by gavage with CMC. Thirty days postinfection, both untreated and treated mice were sacrificed and lung tissue CFU counts were determined. The significance of the CFU count and organ weight difference was assessed by a two-tailed Student t test. P≦0.01 was considered significant.

Row | SMILES | melting point | MIC [1] | Log CFU (TBI treated) (H37Rv) | log reduction at 20 mg/kg (H37Rv) | also measured
1 | CN1CCC(/N=c2\cc3n(-c4ccc(Cl)cc4)c4ccccc4nc-3cc2Nc2cccnc2)CC1 [TBI-427, 5-(4-Chlorophenyl)-3-(N-methyl-4-piperidyl)imino-2-(3-pyridyl)amino-3,5-dihydrophenazine] | 198 to 200 °C | 0.125 µg/mL (≈ 0.253 µM) | – | – | –
2 | COC1CCC(/N=c2\cc3n(-c4ccc(Cl)cc4)c4ccccc4nc-3cc2Nc2cccnc2)CC1 (stereo not drawn) [TBI-436, 5-(4-Chlorophenyl)-3-(4-methoxycyclohexyl)imino-2-(3-pyridyl)amino-3,5-dihydrophenazine] | 228 to 230 °C | 0.03 µg/mL (≈ 0.0588 µM) | – | – | –
3 | CC(C)/N=c1\cc2n(-c3ccc(Cl)cc3)c3ccccc3nc-2cc1Nc1ccc(Cl)cc1 [clofazimine] | – | – | – | – | half-life [2]: 70 days; in vivo anti-TB activity (tuberculosis [3]): demonstrated in vivo anti-TB activity; efficacy (tuberculosis [4]): failed to show efficacy; efficacy (tuberculosis [5]): failed to show efficacy; in vivo anti-TB activity (tuberculosis [6]): demonstrated in vivo anti-TB activity
4 | CCN(CC)CCC/N=c1\cc2n(-c3ccc(Cl)c(Cl)c3)c3ccccc3nc-2cc1Nc1ccc(Cl)c(Cl)c1 [B4154] | – | – | – | – | in vitro activity [7]: improved in vitro activity
5 | Clc1ccc(-n2c3c/c(=N\C4CCOCC4)c(Nc4cccnc4)cc-3nc3ccccc32)cc1 [TBI-434, 5-(4-Chlorophenyl)-3-(4-tetrahydropyranyl)imino-2-(3-pyridyl)amino-3,5-dihydrophenazine] | 215 to 217 °C | 0.03 µg/mL (≈ 0.0622 µM) | – | – | –
6 | COc1ncccc1Nc1cc2nc3ccccc3n(-c3ccc(Cl)cc3)c-2c/c1=N\C1CCC(OC)CC1 (stereo not drawn) [TBI-444, 5-(4-Chlorophenyl)-3-(4-methoxycyclohexyl)imino-2-(2-methoxy-3-pyridyl)amino-3,5-dihydrophenazine] | – | 0.016 µg/mL (≈ 0.0296 µM) | 4.71 | 3.82 | –
7 | COc1ncccc1Nc1cc2nc3ccccc3n(-c3ccc(F)cc3)c-2c/c1=N\C1CCC(OC)CC1 (stereo not drawn) [TBI-1002, 5-(4-Fluorophenyl)-3-(4-methoxycyclohexyl)imino-2-(2-methoxy-3-pyridyl)amino-3,5-dihydrophenazine] | – | 0.016 µg/mL (≈ 0.0306 µM) | 4.85 | 3.68 | –
8 | CC(C)/N=c1\cc2n(-c3ccc(Cl)cc3)c3ccccc3nc-2cc1Nc1cccnc1 [TBI-416, 5-(4-chlorophenyl)-3-(1-methylethyl)imino-2-(3-pyridyl)amino-3,5-dihydrophenazine] | – | 0.03 µg/mL (≈ 0.0682 µM) | 3.83 | 4.7 | –
9 | CC(C)/N=c1\cc2n(-c3cccc(F)c3)c3ccccc3nc-2cc1Nc1cccnc1 [TBI-522, 5-(3-Fluorophenyl)-3-(1-methylethyl)imino-2-(3-pyridyl)amino-3,5-dihydrophenazine] | 164 to 166 °C | 0.062 µg/mL (≈ 0.146 µM) | – | – | –
10 | COC1CCC(/N=c2\cc3n(-c4ccc(C(F)(F)F)cc4)c4ccccc4nc-3cc2Nc2cccnc2)CC1 (stereo not drawn) [TBI-688, 5-(4-Trifluoromethylphenyl)-3-(4-methoxycyclohexyl)imino-2-(3-pyridyl)amino-3,5-dihydrophenazine] | – | 0.03 µg/mL (≈ 0.0552 µM) | 5.99 | 2.83 | –
11 | Cc1ccc(Nc2cc3nc4ccccc4n(-c4ccc(Cl)cc4)c-3c/c2=N\C2CCOCC2)cn1 [TBI-449, 5-(4-Chlorophenyl)-3-(4-tetrahydropyranyl)imino-2-(6-methyl-3-pyridyl)amino-3,5-dihydrophenazine] | – | 0.03 µg/mL (≈ 0.0605 µM) | 3.87 | 4.66 | –
12 | CN1CCC(C/N=c2\cc3n(-c4ccc(Cl)cc4)c4ccccc4nc-3cc2Nc2cccnc2)CC1 [TBI-428, 5-(4-Chlorophenyl)-3-(N-methyl-4-piperidylmethyl)imino-2-(3-pyridyl)amino-3,5-dihydrophenazine] | 188 to 190 °C | 0.25 µg/mL (≈ 0.491 µM) | – | – | –
13 | Clc1ccc(-n2c3c/c(=N\C4CCN(C5CCCC5)CC4)c(Nc4cccnc4)cc-3nc3ccccc32)cc1 [TBI-437, 5-(4-Chlorophenyl)-3-(N-cyclopentyl-4-piperidyl)imino-2-(3-pyridyl)amino-3,5-dihydrophenazine] | 170 to 172 °C | 0.125 µg/mL (≈ 0.228 µM) | – | – | –
14 | CC(C)CN1CCC(/N=c2\cc3n(-c4ccc(Cl)cc4)c4ccccc4nc-3cc2Nc2cccnc2)CC1 [TBI-435, 5-(4-Chlorophenyl)-3-(N-isobutyl-4-piperidyl)imino-2-(3-pyridyl)amino-3,5-dihydrophenazine] | 209 to 210 °C | 0.25 µg/mL (≈ 0.465 µM) | – | – | –
15 | COc1ncccc1Nc1cc2nc3ccccc3n(-c3ccc(Br)cc3)c-2c/c1=N\C1CC1 [TBI-519, 5-(4-Bromophenyl)-3-cyclopropylimino-2-(2-methoxy-3-pyridyl)amino-3,5-dihydrophenazine] | 217 to 218 °C | 0.015 µg/mL (≈ 0.0293 µM) | – | – | –
16 | CC(C)/N=c1\cc2n(-c3ccc(C(F)(F)F)cc3)c3ccccc3nc-2cc1Nc1cccnc1 [TBI-678, 5-(4-Trifluoromethylphenyl)-3-(1-methylethyl)imino-2-(3-pyridyl)amino-3,5-dihydrophenazine] | – | 0.03 µg/mL (≈ 0.0634 µM) | 5.82 | 3 | –
17 | Clc1ccc(-n2c3c/c(=N\C4CCCCC4)c(Nc4cccnc4)cc-3nc3ccccc32)cc1 [TBI-422, 5-(4-Chlorophenyl)-3-cyclohexylimino-2-(3-pyridyl)amino-3,5-dihydrophenazine] | 194 to 196 °C | 0.06 µg/mL (≈ 0.125 µM) | – | – | –
18 | COc1ncccc1Nc1cc2nc3ccccc3n(-c3ccc(Cl)cc3)c-2c/c1=N\C1CCOCC1 [TBI-443, 5-(4-chlorophenyl)-3-(4-tetrahydropyranyl)imino-2-(2-methoxy-3-pyridyl)amino-3,5-dihydrophenazine] | – | 0.016 µg/mL (≈ 0.0312 µM) | 5.13 | 3.4 | –
19 | COc1ncccc1Nc1cc2nc3ccccc3n(-c3ccc(F)cc3)c-2c/c1=N\C1CC1 [TBI-1010, 5-(4-Fluorophenyl)-3-cyclopropylimino-2-(2-methoxy-3-pyridyl)amino-3,5-dihydrophenazine] | – | 0.011 µg/mL (≈ 0.0244 µM) | 4.86 | 3.67 | –
